Source: US12285407B2, “Bis-indolylmethane derivatives and uses thereof” (The University of The West Indies, priority 2018, dated 2025)

Legend:
[1] = tested on: α-hemolysin production in Staphylococcus aureus; type: cell-based
[2] = tested on: Pseudomonas aeruginosa ATCC 27853; experiment: Broth microdilution MIC of SP-BIMs; type: cell-based; settings: ATCC27853, SP-BIM alone, read-out: MIC Pseudomonas aeruginosa ATCC 27853
[3] = tested on: Gram-negative bacteria; experiment: Adjuvant broth microdilution; type: cell-based; settings: SP-BIM at 50 μg mL^−1
Experimental: To each well, the SP-BIM to be tested was added to a final concentration of 50 μg mL^−1. […] SP-BIMs were assessed as potential adjuvants based on their ability to reduce the MIC of the antibiotic against respective pathogen.

[4] = tested on: Staphylococcus aureus ATCC 12600; experiment: Broth microdilution MIC of SP-BIMs; type: cell-based; settings: ATCC12600, SP-BIM alone, read-out: MIC Staphylococcus aureus ATCC 12600
[5] = tested on: Escherichia coli ATCC 35218; experiment: Broth microdilution MIC of SP-BIMs; type: cell-based; settings: ATCC35218, SP-BIM alone, read-out: MIC Escherichia coli ATCC 35218
[6] = tested on: clinical antibiotic resistant isolates of MRSA; experiment: Checkerboard resistance breaking by SP-BIM 13; type: cell-based, Staphylococcus aureus; settings: clinical MRSA strains; in most cases
[7] = tested on: Corynebacterium diphtheriae ATCC 27010; experiment: Broth microdilution MIC of SP-BIMs; type: cell-based; settings: ATCC27010, SP-BIM alone, read-out: MIC Corynebacterium diphtheriae ATCC 27010
[8] = in vitro; settings: human
[9] = tested on: MRSA HS 10132; experiment: Systemic lethal MRSA infection in mice (survival); type: in vivo
[10] = In vivo acute toxicity (OECD guidelines); settings: one subcutaneous injection, 2000 mg/kg and 300 mg/kg; 14 days
[11] = tested on: MRSA HS 10132; experiment: Systemic non-lethal MRSA infection in mice (organ MRSA load); type: in vivo
[12] = tested on: Streptococcus pyogenes ATCC 19615; experiment: Broth microdilution MIC of SP-BIMs; type: cell-based; settings: ATCC19615, SP-BIM alone, read-out: MIC Streptococcus pyogenes ATCC 19615
[13] = tested on: Bacillus cereus ATCC 14579; experiment: Broth microdilution MIC of SP-BIMs; type: cell-based; settings: ATCC14579, SP-BIM alone, read-out: MIC Bacillus cereus ATCC 14579
[14] = tested on: reference pathogen strains; experiment: Checkerboard synergy study, summary over pathogens; type: cell-based; settings: checkerboard with SP-BIM 13
[15] = tested on: Candida albicans ATCC 22972; experiment: Broth microdilution MIC of SP-BIMs; type: cell-based; settings: ATCC22972, SP-BIM alone, read-out: MIC Candida albicans ATCC 22972

SMILES: Oc1cc(C(c2c[nH]c3ccccc23)c2c[nH]c3ccccc23)cc(O)c1O [SP-BIM 13, 5-(di(1H-indol-3-yl)methyl)benzene-1,2,3-triol]
- lysis of RBCs [1]: less than 50%
- MIC [2]: 250 mg/L
- potentiating activity for Gram-negative bacteria [3]: No potentiating activity was observed
- MIC [4]: > 250 mg/L
- MIC [5]: > 250 mg/L
- reduction of ampicillin MICs by SP-BIM 13 [6]: 100 fold
- MIC [7]: > 250 mg/L
- CC50 [8]: 750 µM
- mortality ([9]; SP-BIM 13 only 5 mg kg^−1): 40%
- mortality ([9]; SP-BIM 13 only 10 mg kg^−1): 60%
- mortality ([9]; SP-BIM 13 only 25 mg kg^−1): 0%
- mortality ([9]; ampicillin in combination with three levels SP-BIM 13, 5 days): 0%
- survival rate ([9]; vancomycin in combination with the three levels of SP-BIM 13): similarly high survival rate
- mice deaths [10]: no mice deaths were recorded
- mice weight and appetite [10]: did not significantly vary from the untreated mice
- MRSA load in the spleen ([11]; SP-BIM 13 only, both levels): did not significantly reduce
- MRSA counts in liver ([11]; ampicillin ([…] mg kg^−1)+5 mg kg^−1 SP-BIM 13): 7900 CFU mL^−1
- MRSA counts in liver ([11]; ampicillin ([…] mg kg^−1)+10 mg kg^−1 SP-BIM 13): 900 CFU mL^−1
- MRSA counts in liver ([11]; ampicillin ([…] mg kg^−1)+25 mg kg^−1 SP-BIM 13): 63 CFU mL^−1
- MRSA load in the spleen ([11]; ampicillin and SP-BIM 13 at 10 and 25 mg kg^−1, vs no treatment, ampicillin only, ampicillin+5 mg kg^−1): significantly lower
- MIC [12]: 125 mg/L
- MIC [13]: 125 mg/L
- reduction of most antibiotic MICs ([14]; Gram-positive and Gram-negative pathogens): reduced by tenfold or more
- interaction effect in combinations with trimethoprim [14]: antagonistic
- MIC [15]: 250 mg/L
